Laboratory results from patent publication US6958333B1, “Biarylurea derivatives” (Banyu Pharmaceutical Co., Ltd., priority 1999, dated 2005).

Legend:
[1] = system: HCT116 cells; test: Activity of inhibiting cell growth, HCT116 (sulforhodamine B); assay type: cell-based; conditions: Homo sapiens, HCT-116, 72 h, cell growth inhibition, 3 days incubation
Protocol: (§1) Activity of Inhibiting Cell Growth
(§2) • (1) Method of cell culture
(§3) Clinical separative cancer cells HCT116 were cultured in Dulbecco′ modified Eagle's medium with 10% Fetal Bovine Serum, and clinical separative cancer cells MKN-1 were cultured in RPMI1640 medium added 10% Fetal Bovine Serum. Both cells were cultured at 37° C., under 5% CO2 and saturated steam. • (2) Determination of activity of inhibiting cell growth
(§4) The activity of inhibiting cell growth was measured using the modified method of Skehan's method (J. Natl. Cancer Inst. Vol.82, p.1107-1112, 1990), and so on. One hundred μL each of the culture medium containing 1×10^3 HCT116 or MKN-1 as living cells was pipetted to 96-well dish and cultured over night. […] Then, the diluted compounds or DMSO as the control, was added to the medium. One hundred μL of the medium added with the diluted drug solutions or DMSO was added to the cells cultured in 96-well dish, and was incubated for further 3 days.
(§5) To each well, 50 μL of trichloroacetic acid (50%) was added to fix the cells. The cells were stained using 0.4% sulforhodamine B. Sulforhodamine B was extracted with 10 mM tris buffer, and the optical density at 560 nm was compared with that of control at 450 nm.

[2] = system: MKN-1 cells; test: Activity of inhibiting cell growth, MKN-1 (sulforhodamine B); assay type: cell-based; conditions: Homo sapiens, MKN-1, 72 h, cell growth inhibition, 3 days incubation
Protocol: as §1, §2, §3, §4, §5

[3] = biological target: T1, cyclin D3-Cdk6 (Homo sapiens, UniProt Q00534); test: Enzyme assay of cyclin D3-Cdk6 (33P-ATP phosphorylation of peptide substrate); assay type: biochemical; conditions: 100 μM peptide substrate, 50 μM ATP, 30° C.
T1 construct: made in house; host or cells: Sf9 insect cells, baculovirus co-infection
Text: • (1) Preparation of cyclin D1-Cdk6 and cyclin D3-Cdk6
As the same method of preparing cyclin D1-Cdk4, cDNA of Cdk6 and its activator cyclin D1 or D3 was recombined with baculovirus-expression vector to make recombinant baculovirus. This was co-infected to insect cell Sf9 to express an active complex of cyclin D1-Cdk6 or cyclin D3-Cdk6. The cells were recovered and solubilized and purified by HPLC columnchromatography. • (2) Enzyme assay of cyclin D1-Cdk6 and cyclin D3-Cdk6.
A peptide substrate used for cyclin D1-Cdk6 was synthetic peptide ([…] (SEQ ID No. 2) and that used for cyclin D3-Cdk6 was synthetic peptide ([…] (SEQ ID No. 3) (The EMBO J. vol. 15, p. 7060-7069, 1996).
The reaction was carried out using the modified procedure of Kitagawa's method (Oncogene, vol.7, p.1067-1074, 1992). The volume of the reaction solution was 21.1 μL. Purified cyclin D1-Cdk6 in R buffer and 400 μM peptide substrate or cyclin D3-Cdk6 and 100 μM pipetide substrate, unlabeled ATP (50 μM) and 1 μCi ATP labeled with γ-33P(2000-4000 Ci/mmole) were added to the reaction mixture. The mixture was incubated at 30° C. for 20 or 45 min. Then, 10 μL of phosphate buffer (350 mM) was added to stop the reaction. The peptide substrate was absorbed to P81 paper and its radioactivity was measured by a liquid scintillation counter. […]

[4] = biological target: cyclin D2-Cdk4 (Homo sapiens, UniProt P11802); test: Enzyme assay of cyclin D2-Cdk4 (33P-ATP phosphorylation of RB peptide substrate); assay type: biochemical; conditions: Table 1, second value column (head repeats cyclin D1-Cdk4); 50 μM ATP, 100 μM peptide substrate, 30° C., 45 min
Chain of cyclin D2-Cdk4 (P11802 whole entry): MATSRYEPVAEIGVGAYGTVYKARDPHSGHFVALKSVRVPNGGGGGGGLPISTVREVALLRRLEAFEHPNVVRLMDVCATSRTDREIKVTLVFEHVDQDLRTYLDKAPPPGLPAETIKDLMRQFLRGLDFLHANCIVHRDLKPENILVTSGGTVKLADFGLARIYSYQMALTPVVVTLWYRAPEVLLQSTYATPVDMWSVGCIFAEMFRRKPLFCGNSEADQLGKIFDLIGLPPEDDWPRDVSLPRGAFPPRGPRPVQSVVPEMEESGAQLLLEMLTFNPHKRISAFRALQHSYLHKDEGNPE
Text: • (1) Preparation of cyclin D1-Cdk4 and cyclin D2-Cdk4
cDNA of Cdk4 and its activator cyclin D1 or D2 was subcloned into a baculovirus-expression vector to make recombinant baculovirus and then, they are co-infected to insect cell Sf9 to express an active complex of cyclin D1-Cdk4 or cyclin D2-Cdk4. The cells were recovered and solubilized and purified by HPLC columnchromatography (The the enzyme are EMBO J. vol.15, p.7060-7069, 1996). • (2) Enzyme assay of cyclin D1-Cdk4 and cyclin D2-Cdk4
The reaction was carried out using the modified procedure of Kitagawa's method (Oncogene, vol.7, p.1067-1074, 1992). The volume of the reaction solution was 21.1 μL. The reaction buffer (R buffer) consisted of 20 mM Tri-HCl buffer (pH7.4)/10 mM MgCl2/4.5 mM 2-mercaptoethanol/1 mM ethyleneglycolbis(β-aminoethylether)-N,N,N′,N′-tetracetic acid (EGTA). Purified cyclin D1-Cdk4 or D2-Cdk4, 100 μM peptide substrate, 50 μM unlabeled ATP and ATP labeled with 1 μCi γ-33P(2000-4000 Ci/mmole) were added to the reaction mixture. The mixture was incubated at 30° C. for 45 min. 10 μL of phosphate buffer (350 mM) was added to stop the reaction. The peptide substrate was absorbed to P81 paper and its radioactivity was measured by a liquid scintillation counter. ATP labeled with γ-33P was purchased from Daiich Chemicals, Ltd. […]

T1 sequence (Q00534 whole entry): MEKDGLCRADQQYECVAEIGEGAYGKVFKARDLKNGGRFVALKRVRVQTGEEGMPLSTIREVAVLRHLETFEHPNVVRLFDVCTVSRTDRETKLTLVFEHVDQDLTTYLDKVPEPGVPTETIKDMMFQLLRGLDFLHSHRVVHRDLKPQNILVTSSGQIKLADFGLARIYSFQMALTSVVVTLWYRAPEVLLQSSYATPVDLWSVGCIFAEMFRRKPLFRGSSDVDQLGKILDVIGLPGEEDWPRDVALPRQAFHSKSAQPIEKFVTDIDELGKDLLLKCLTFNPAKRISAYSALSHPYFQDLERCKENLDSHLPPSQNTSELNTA
T1 sequence (P30281 whole entry partner): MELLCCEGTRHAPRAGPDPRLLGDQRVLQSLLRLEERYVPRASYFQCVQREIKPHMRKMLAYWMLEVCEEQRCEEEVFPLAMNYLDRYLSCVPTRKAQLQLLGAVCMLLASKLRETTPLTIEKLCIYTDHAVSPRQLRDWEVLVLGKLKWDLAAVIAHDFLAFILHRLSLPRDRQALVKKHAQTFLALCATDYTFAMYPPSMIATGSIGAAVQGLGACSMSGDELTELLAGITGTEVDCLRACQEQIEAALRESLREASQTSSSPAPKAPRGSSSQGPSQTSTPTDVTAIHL

SMILES | IC50 [1] | IC50 [2] | IC50 [3] | IC50 [4]
CN1CC[C@H](c2c(O)cc(O)c3c(=O)cc(-c4ccccc4Cl)oc23)[C@H](O)C1 (racemic) [(±)flavopiridol, flavopiridol] | 0.15 µM | 0.87 µM | – | –
O=C(Nc1cc(C2CCN(Cc3ccccc3)C2)ccn1)Nc1cccc2c1C1CCCN1C2=O (stereo not shown) [Working Example No. 165, N′-(pyrrolidino[2,1-b]isoindolin-4-on-8-yl)-N-(4-(N-benzylpyrrolidin-3-yl)pyridin-2-yl)urea] | – | – | 0.013 µM | 0.016 µM
